Reference: patent publication US9670226B2, “Sesquiterpenoids” (National Institute of Biological Sciences, Beijing, priority 2014, dated 2017)

Assays:
NF-κB activation = NF-κB activation (SAR analogs and biotin probes)
Source text: In order to evaluate which of them is critical for the binding of 223, we individually mutated these nine cysteine residues of IKKβ into alanines.

[1] = system: BGC-823 human gastric adenocarcinoma xenograft; assay: BGC-823 xenograft in nude mice; type: in vivo; conditions: 223 25 mg/kg, qdx8; HCPT 30 mg/kg, q6dx2
Method: Next we further examined anti-tumor effect of 223 in vivo. Nude mice bearing a BGC-823 human gastric adenocarcinoma xenograft were treated with vehicle or 223 (25 mg/kg, qdx8) or 10-hydroxycamptothecin (HCPT), a widely used anti-tumor drug (30 mg/kg, q6dx2).

[2] = system: IKKβ C215 containing peptides #3 and #4; assay: Peptide binding by MALDI-TOF; parameters: species or system human
recombinant Flag-IKKα = target: T1, recombinant Flag-IKKα (Homo sapiens, UniProt O15111); assay: Binding to purified recombinant protein (SDS-PAGE, streptavidin blot); conditions: increasing concentrations
T1 construct: made in house; host or cells: 293T cells (transient transfection, anti-Flag purification)
Method: To determine whether 223 directly binds to IKKα and IKKβ, we generated recombinant IKKα and IKKβ proteins for further analysis. 293T cells were transfected with Flag-IKKα or Flag-IKKβ plasmid, and the recombinant Flag-IKKα or Flag-IKKβ was captured by anti-Flag agarose beads and was then eluted off the beads using Flag peptide. The purified Flag-IKKα or Flag-IKKβ was incubated with DMSO or increasing concentrations of Probe, and then the mixtures were resolved by SDS-PAGE, followed by immunoblotting with streptavidin or anti-Flag antibody.

[3] = target: T2, IKKβ C46 containing peptide (#1, #2; amino acids 41-53) (Homo sapiens, UniProt O14920); assay: Peptide binding by MALDI-TOF
T2 construct: encompasses amino acids 41-53 of human IKKβ; made in house; host or cells: chemical peptide synthesis
Method: (§1) This peptide was tested for binding to 223 and probe by using MALDI-TOF (Matrix-Assisted […] Desorption/Ionization Time of Flight). m/z values at 2,047.978 and 2,479.259 were well matched with the calculated weights of #1+223 and #1+Probe, respectively. […] As expected, the peptide #2 containing amino acids 41-53 of human IKKβ interacted with both 223 and probe.

[4] = system: IKKβ C46 containing peptide (#1, #2; amino acids 41-53); assay: Peptide binding by MALDI-TOF; parameters: species or system human
Method: as §1

[5] = system: peptides 1A, 2A, 1S and 2S (cysteine 46 replaced by alanine or serine); assay: Peptide binding by MALDI-TOF; parameters: species or system human
IKKβ [6] = target: T3, IKKβ (Homo sapiens, UniProt O14920); assay: Pull-down from 293T cell lysates with streptavidin agarose beads; type: binding
T3 sequence (O14920 1-756): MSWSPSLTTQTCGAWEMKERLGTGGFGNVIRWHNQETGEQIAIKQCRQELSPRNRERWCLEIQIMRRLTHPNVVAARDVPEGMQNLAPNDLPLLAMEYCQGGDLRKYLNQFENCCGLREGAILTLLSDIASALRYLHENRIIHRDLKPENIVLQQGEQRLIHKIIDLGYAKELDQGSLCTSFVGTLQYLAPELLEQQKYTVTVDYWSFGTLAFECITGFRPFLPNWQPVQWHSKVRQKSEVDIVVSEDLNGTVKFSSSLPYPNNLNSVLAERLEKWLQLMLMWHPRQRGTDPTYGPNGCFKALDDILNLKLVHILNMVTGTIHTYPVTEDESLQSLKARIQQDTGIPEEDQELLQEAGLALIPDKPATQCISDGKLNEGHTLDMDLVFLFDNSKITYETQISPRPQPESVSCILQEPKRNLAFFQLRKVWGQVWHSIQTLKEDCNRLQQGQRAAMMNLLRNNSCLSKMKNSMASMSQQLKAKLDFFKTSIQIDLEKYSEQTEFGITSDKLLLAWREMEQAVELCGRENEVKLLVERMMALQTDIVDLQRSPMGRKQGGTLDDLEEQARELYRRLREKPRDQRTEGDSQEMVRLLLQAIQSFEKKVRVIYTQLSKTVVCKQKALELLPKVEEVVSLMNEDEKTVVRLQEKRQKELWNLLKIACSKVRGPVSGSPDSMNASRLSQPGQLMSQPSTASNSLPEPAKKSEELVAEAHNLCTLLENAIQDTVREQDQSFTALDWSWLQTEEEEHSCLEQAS
Method: (§2) To identify cellular proteins interacting with 223, we performed pull-down experiments using Probe and NC as the positive and negative probe, respectively. 293T cell lysates were incubated with streptavidin agarose beads which were pre-coupled with positive probe or negative probe. The proteins precipitated by streptavidin agarose beads were resolved by SDS-PAGE and stained with silver. […] We further monitored the presences of IKKα and IKKβ in the precipitates by immunoblotting.

IKKα = target: T4, IKKα (Homo sapiens, UniProt O15111); assay: as above; type: binding
T4 construct: endogenous in cells; host or cells: 293T
Method: as §2

IKKβ [7] = target: T3, IKKβ; assay: IKKβ kinase inhibition; type: biochemical; conditions: table of derivatives; read-out: IKKβ (IC50)
Source text: To further explore how (+)-ainsliadimer A inactivates IKKα/β, we conducted the molecular dynamics (MD) simulations using the first crystal structure of IKKβ^29 to sample the conformational states of IKKβ upon 223 binding. […] We next asked whether 223 could directly affect IKKβ kinase activity.

phosphorylation of IκBα = assay: LPS induced NF-κB activation: IκBα phosphorylation in RAW264.7 cells (western blot); type: cell-based, mouse; conditions: Raw 264.7 cells pre-incubated with 4 μM for 2 h, 20 ng/ml LPS, 20 minutes, western blot

T1 sequence (O15111 whole entry): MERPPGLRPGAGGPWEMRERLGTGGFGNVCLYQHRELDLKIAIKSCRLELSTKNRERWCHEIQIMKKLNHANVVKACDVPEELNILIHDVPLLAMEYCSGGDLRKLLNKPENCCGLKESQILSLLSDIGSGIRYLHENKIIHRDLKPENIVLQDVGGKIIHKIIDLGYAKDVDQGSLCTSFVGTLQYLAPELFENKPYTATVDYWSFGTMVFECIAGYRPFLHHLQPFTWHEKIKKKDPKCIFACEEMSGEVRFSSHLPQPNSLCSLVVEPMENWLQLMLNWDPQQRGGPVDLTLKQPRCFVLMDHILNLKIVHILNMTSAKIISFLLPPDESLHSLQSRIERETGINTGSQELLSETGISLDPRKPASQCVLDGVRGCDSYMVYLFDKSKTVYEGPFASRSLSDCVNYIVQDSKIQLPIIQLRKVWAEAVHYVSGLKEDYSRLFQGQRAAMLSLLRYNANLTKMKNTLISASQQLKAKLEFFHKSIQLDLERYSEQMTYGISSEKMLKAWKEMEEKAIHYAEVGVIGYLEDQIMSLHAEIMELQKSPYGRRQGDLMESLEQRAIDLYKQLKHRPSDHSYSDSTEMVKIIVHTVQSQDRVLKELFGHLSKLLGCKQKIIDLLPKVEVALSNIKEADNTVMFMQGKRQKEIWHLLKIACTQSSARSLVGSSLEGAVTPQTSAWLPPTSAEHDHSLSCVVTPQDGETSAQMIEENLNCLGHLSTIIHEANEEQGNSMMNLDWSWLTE
T4 sequence (O15111 whole entry): as above

C=C1C(=O)O[C@@H]2[C@@H]3[C@@H](C[C@H](O)[C@]34CC[C@]3(O)[C@@H]5[C@H]6OC(=O)C(=C)[C@@H]6CCC(=C)[C@@H]5C[C@]43O)C(=C)CC[C@@H]12 [Compound 224]
biological activity (initial SAR) (NF-κB activation): fully retain the biological activity

CC[C@@]1(O)C(=O)OCc2c1cc1n(c2=O)Cc2cc3cc(O)ccc3nc2-1 [HCPT, 10-hydroxycamptothecin, reference compound]
side effects and body weight during administration [1]: significant body weight loss

C=C1C(=O)O[C@@H]2[C@@H]3[C@@H](C[C@H](OC(=O)CCOCCOCCOCCNC(=O)CCCC[C@@H]4SC[C@@H]5NC(=O)N[C@@H]54)[C@]34CC[C@]3(O)[C@@H]5[C@H]6OC(=O)C(=C)[C@@H]6CCC(=C)[C@@H]5C[C@]43O)C(=C)CC[C@@H]12 [Probe]
association with peptides #3 and #4 [2]: no association
interaction with recombinant IKKα (recombinant Flag-IKKα): strong interaction
binding to peptide #1 [3]: could bind
interaction with peptide #2 [4]: interacted
binding to peptides 1A, 2A, 1S and 2S [5]: lost the ability to bind
pull-down of IKKβ (immunoblotting) (IKKβ [6]): specifically pulled down
pull-down of IKKα (immunoblotting) (IKKα): specifically pulled down

C=C1CC[C@H]2C(CN(C)C)C(=O)O[C@@H]2[C@@H]2[C@H]1C[C@@]13OC(C)(C)O[C@@]21CC[C@]31C(=O)C[C@H]2C(=C)CC[C@H]3C(CN(C)C)C(=O)O[C@@H]3[C@H]21 (stereo partly shown) [Compound 3]
IC50 (IKKβ [7]): 0.0418 µM
phosphorylation of IκBα (phosphorylation of IκBα): effectively blocked

C=C1CC[C@@H]2[C@H](OC(=O)[C@H]2C)[C@@H]2[C@H]1C[C@@]1(O)[C@]2(O)CC[C@]12C(=O)C[C@H]1C(=C)CC[C@@H]3[C@H](OC(=O)[C@H]3C)[C@H]12 [Compound 225]
biological activity (initial SAR) (NF-κB activation): inactive

C=C1C(=O)O[C@@H]2[C@@H]3[C@@H](C[C@@]45OC(C)(C)O[C@@]34CC[C@]53C(=O)C[C@H]4C(=C)CC[C@H]5C(=C)C(=O)O[C@@H]5[C@H]43)C(=C)CC[C@@H]12 [Compound 2]
IC50 (IKKβ [7]): 0.056 µM
phosphorylation of IκBα (phosphorylation of IκBα): effectively blocked

C=C1C(=O)O[C@@H]2[C@@H]3[C@@H](C[C@@]4(O)[C@]3(O)CC[C@]43C(=O)C[C@H]4C(=C)CC[C@H]5C(=C)C(=O)O[C@@H]5[C@H]43)C(=C)CC[C@@H]12 [Compound 1]
IC50 (IKKβ [7]): 0.0757 µM
phosphorylation of IκBα (phosphorylation of IκBα): effectively blocked
